Reference: patent publication US20100286139A1, “AMINO PYRAZOLE COMPOUND” (ELI LILLY AND COMPANY, priority 2008, published 2010)

Molecular target: T1, JAK2V617F (Homo sapiens, UniProt O60674, V617F)
T1 construct: expressed in transfected cells; host or cells: Ba/F3 (murine pro-B) cells
Experiment: Ba/F3 JAK2V617F cell-based assay (Cellomics ArrayScan HCS)
Parameters: species or system murine
Conditions: Ba/F3 cells expressing JAK2V617F, 60 min compound incubation; read-out: relative IC50, inhibition of pSTAT5
Description: JAK2 target inhibition has been evaluated in Ba/F3 expressing JAK2 V617F by Western blot as reported in Wernig et al. (Wernig G, et al. Efficacy of TG101348, a selective JAK2 inhibitor, in treatment of a murine model of JAK2V617F-induced polycythemia vera, Cancer Cell, April; 13(4):311-20). A medium throughput Cellomics assay was established to evaluate the JAK2 target inhibition in Ba/F3 cells expressing JAK2V617F. This assay enables the discovery of an effective therapeutic agent to treat disorders associated with JAK2V617F mutation.
Ba/F3 (murine pro-B) cells expressing JAK2V617F maintained in RPMI 1640 with 10% FBS, 0.07% sodium bicarbonate, 1 mM sodium pyruvate, 1× antibiotic/antimycotic (Invitrogen, Carlsbad, Calif.) and 0.45% glucose (Sigma, St Louis, Mo.). Cells are kept at 37° C. with 5% CO2. The test compound is prepared in 100% DMSO at 10 mM concentration. […]
After cell treatment, 500 μL of 1% formaldehyde solution (made freshly with phosphate-buffered saline (PBS) and kept warm at 37° C.) is added to each well. […] An aliquot of 200 μL of 1 to 10 dilution of Mouse anti-pSTAT5 (pY694) Alexa Fluor 647® in fluorescence activated cell sorting (FACS) buffer is added to the cells. […] Mean fluorescent intensity data are collected and analyzed using Cellomics Arrayscan® VTi. […] The relative IC50 is calculated using a 4 parameter logistic curve fitting analysis with ActivityBase 4.0. […]

T1 sequence (O60674 whole entry V617F): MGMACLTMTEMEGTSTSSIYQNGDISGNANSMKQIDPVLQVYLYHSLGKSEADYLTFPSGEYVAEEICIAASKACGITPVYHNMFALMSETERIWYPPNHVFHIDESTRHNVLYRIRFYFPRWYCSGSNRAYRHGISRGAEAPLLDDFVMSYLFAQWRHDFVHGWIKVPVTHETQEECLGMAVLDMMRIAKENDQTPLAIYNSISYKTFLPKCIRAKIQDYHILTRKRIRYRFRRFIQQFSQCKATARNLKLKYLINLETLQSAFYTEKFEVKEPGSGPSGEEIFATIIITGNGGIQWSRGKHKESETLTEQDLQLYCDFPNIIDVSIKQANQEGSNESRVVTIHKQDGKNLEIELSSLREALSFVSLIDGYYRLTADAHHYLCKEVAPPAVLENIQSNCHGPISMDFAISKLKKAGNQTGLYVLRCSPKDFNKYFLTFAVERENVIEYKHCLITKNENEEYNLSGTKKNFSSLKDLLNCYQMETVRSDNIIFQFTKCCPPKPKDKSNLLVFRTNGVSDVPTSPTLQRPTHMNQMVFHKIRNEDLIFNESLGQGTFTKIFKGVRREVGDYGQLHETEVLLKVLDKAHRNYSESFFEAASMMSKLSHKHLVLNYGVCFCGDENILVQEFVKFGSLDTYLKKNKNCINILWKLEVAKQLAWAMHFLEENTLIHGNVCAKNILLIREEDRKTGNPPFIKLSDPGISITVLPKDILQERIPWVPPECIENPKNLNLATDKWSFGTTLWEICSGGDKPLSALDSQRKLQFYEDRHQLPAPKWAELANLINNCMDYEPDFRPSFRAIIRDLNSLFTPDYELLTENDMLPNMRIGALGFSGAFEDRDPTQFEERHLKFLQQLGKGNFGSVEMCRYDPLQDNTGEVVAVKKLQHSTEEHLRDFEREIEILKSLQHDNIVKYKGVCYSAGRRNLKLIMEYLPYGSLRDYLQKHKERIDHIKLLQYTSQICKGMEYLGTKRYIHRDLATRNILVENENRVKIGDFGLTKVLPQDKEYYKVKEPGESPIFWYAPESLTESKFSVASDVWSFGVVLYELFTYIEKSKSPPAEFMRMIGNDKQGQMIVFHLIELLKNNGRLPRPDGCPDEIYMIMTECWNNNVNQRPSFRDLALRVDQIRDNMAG

IC50: 0.03 µM
Compound: Cc1cc(Nc2cc(CN3CCOCC3)c3nc(C)c(Cc4ccc(Cl)cc4F)n3n2)n[nH]1 [3-(4-Chloro-2-fluorobenzyl)-2-methyl-N-(5-methyl-1H-pyrazol-3-yl)-8-(morpholinomethyl)imidazo[1,2-b]pyridazin-6-amine]
